US6838084B1, “Cytotoxic T-cell epitopes of the papilloma virus l1-protein and use thereof in diagnosis and therapy” (priority 1999, dated 2005)
Read-outs that look alike come from different tables or passages of the source.

What was measured:
CVLP-stimulated T cells [1] = test: Restimulation of CVLP-stimulated T cells, HLA A1-positive donor, 20 mer peptides (γ-interferon FACScan); assay type: cell-based, human; settings: for restimulation of CVLP-stimulated T cells (CD8-positive T cells reactive by γ-interferon expression): PBMCs with 10 μg/ml peptide, HLA A1-positive donor, FIG. 4
Protocol: (§1) The name of the particular peptide with which the PBMCs were loaded is listed from left to right. “None” represents PBMCs which were incubated only with buffer.
(§2) Human T cells (4×10^5) of an HLA A1-positive donor were stimulated with HPV16 L1ΔC·E71-55 CVLPs at 37° C. for 5 weeks with weekly addition of 1 μg/ml CVLPs and 10^5 antigen-presenting cells (irradiated PMBCs), and harvested. The cells were then restimulated in 100 μl of medium at 37° C. with 10 μg/ml of the peptides listed along the X axis of FIG. 4 in the presence of 10 IU/ml IL2. Cells incubated only with buffer served as a negative control.
(§3) After one hour, 1 μl of Monensin (300 μM) was added. The cells were incubated at 37° C. for a further 5 hours. The cells were then fixed and permeabilized, and stained with α-hum CD8/PE, with α-hum CD4/Cychrome and with α-hum γ-interferon/FITC. The cells were examined in a FACScan calibur with respect to their label and the data were analyzed with the aid of Cellquest software.

CVLP-stimulated T cells [2] = test: Restimulation of CVLP-stimulated T cells, non-HLA-classified donor, 20 mer peptides (γ-interferon FACScan); assay type: cell-based, human; settings: for restimulation of CVLP-stimulated T cells (CD4-positive T cells reactive by γ-interferon expression): PBMCs with 10 μg/ml peptide, non-HLA-classified donor, FIG. 5; for Epitop-Information (epitope type): Table 2
Protocol: as §1
as §2, with “of a non-HLA-classified” for “of an HLA A1-positive”, “for 6” for “for 5”, “FIG. 5” for “FIG. 4”
as §3

HLA A1 molecules = settings: Kast et al. (1994) Journal of Immunology 152, 3904-3912, cited from earlier work
CVLP-stimulated T cells [3] = test: Restimulation of CVLP-stimulated T cells, HLA A2.01-positive donor (γ-interferon FACScan); assay type: cell-based, human; settings: PBMCs incubated with 10 μg/ml antigen, FIG. 3
Protocol: The content of T cell-specific CD3 for each experiment is listed from left to right and the content of human γ interferon which is specific for activated cells is listed from bottom to top.
Human T cells (4×10^5) of an HLA A2.01-positive donor were stimulated with HPV16 LlΔC·E71-55 CVLPs at 37° C. for 8 weeks with weekly addition of 1 μg/ml CVLPs and 10^5 antigen-presenting cells (irradiated PMBCs), and harvested. The cells were then restimulated in 100 μl of medium at 37° C. with 10 μg/ml various antigens in the presence of 10 IU/ml IL2 and 0.5 μg/ml α-human CD28: • a) with CVLP-incubated PBMCs overnight • b) with L1 2022 peptide-incubated PBMCs overnight • c) with L1 2025 peptide (control peptide)incubated PBMCs overnight
as §3, with “Golgi Plug” for “Monensin (300 μM)”, “CD3/PE,” for “CD8/PE,”

CVLP-specific T cells = test: Peptide-specific TNFα secretion by CVLP-stimulated T cells (WEHI cell/MTT readout); assay type: cell-based, human; settings: PMBC + 10 μg/ml peptide, overnight, 10 IU/ml IL-2; HLA A2.01-positive donor; FIG. 1
From the text: T cells stimulated by specific, antigen-presenting PBLs release TNFα. This induces apoptosis in WEHI cells so that these cells are no longer able to process MTT into a brownish dye. Low absorption means low dye production and thus many apoptotic cells which had thus been exposed to a lot of TNFα so that the corresponding T cells had been stimulated. Thus, stimulation of T cells improves with decreasing absorption at 595 nm for a particular antigen.
Human T cells (4×10^5) of an HLA A2.01-positive donor were stimulated with HPV16 L1ΔC·E71-55 CVLPs at 37° C. for 8 weeks with weekly addition of 1 μg/ml CVLPs, 10^5 irradiated peripheral blood mononuclear cells (PMBCs) and 10 IU/ml IL-2, and harvested.
The cells were stimulated in 100 μl of medium at 37° C. overnight with different antigens (PMBC+E7 peptide; PMBC+HPV16 L1αC·E71-55 (CVLP); PMBC+5104, 5105, 5106, 5107, 5108, 5109, 5112, 5113, 10 μg/ml each) in the presence of 10 IU/ml IL-2. During this time, stimulated cells produce TNFα.
The following day, 50 μl of supernatant were removed, frozen, thawed again (in order to destroy possibly coremoved cells) and added to 50 μl of a cell suspension containing 0.9×10^6 WEHI cells, 2 μg/ml actinomycin D and 400 mM LiCl. The cells were incubated at 37° C. for 24 h. During this time, TNFα (if present in the supernatant) induces apoptosis of WEHI cells. Addition of 50 μl of a 2.5 mg/ml MTT solution in PBS stained non-apoptotic cells brown within three hours, whereas apoptotic cells remained yellow. All cells were lysed by adding 100 μl of lysis buffer (34% N,N-dimethylformamide, 20% sodium dodecyl sulfate) and incubating at 37° for at least 6 hours so that the dyes were released. Finally, absorption of the solution was measured at 595 nm.
Low absorption means low dye production and thus many apoptotic cells which had thus been exposed to a lot of TNFα so that the corresponding T cells had been stimulated. Thus, T-cell stimulation improved with decreasing absorption at 595 nm.

[4] = target: T1, MHC-1 complexes of T2 cells (Homo sapiens, UniProt P04439, I119V/I121R/I166T/I218V/L300P/L318F/N151K/N90K/P208A/P217A/Q86G/Q94H/R138H/R169H/T345S); assay type: binding; settings: 0, 10 or 100 μg/ml peptide overnight; BB7.2 antibody, FACS; FIG. 2
T1 construct: The unloaded MHC-1 molecules which are nevertheless present on the cell surface; host or cells: T2 cells

CVLP-stimulated T cells [5] = test: Restimulation of CVLP-stimulated T cells with peptide pools, HLA A1-positive donor; assay type: cell-based, human; settings: common to pools E and 6
Protocol: The name of the particular peptide pool with which the PBMCs were loaded is listed from left to right. “None” represents PBMCs which were incubated only with buffer.
Human T cells (4×10^5) of an HLA A1-positive donor were stimulated with HPV16 L1ΔC·E71-55 CVLPs at 37° C. for 6 weeks with weekly addition of 1 μg/ml CVLPs and 10^5 antigen-presenting cells (irradiated PMBCs), and harvested.
The 20 mer peptides 1 to 51 were combined in peptide pools A to H and 1 to 7 according to the matrix
The T cells of an HLA A1-positive donor were then restimulated in 100 μl of medium at 37° C. with the peptide pools in the presence of 10 IU/ml IL2. In this connection, such amounts of peptide pools were used that for each individual peptide 1 μg/ml was added. Cells incubated only with buffer served as a negative control.
as §3, with “Golgi Plug” for “Monensin (300 μM)”

Q: With “AEPDRAHYNIVTFCCXCDST (AEPDRAHYNIVTFCCKCDST; Human papillomavirus type 16) [Peptide 48]” as the sequence, how does the “restimulation of CVLP-stimulated T cells (CD8-positive T cells reactive by γ-interferon expression)” value (CVLP-stimulated T cells [1]) read?
A: effected restimulation of CVLP-stimulated T cells

Q: Which “restimulation of CVLP-stimulated T cells (CD4-positive T cells reactive by γ-interferon expression)” value (CVLP-stimulated T cells [2]) does the source give for ASSNYFPTPSGSMVTSDAQI [Peptide 27] here?
A: effected restimulation of CVLP-stimulated T cells

Q: And the “Epitop-Information (epitope type)” value (CVLP-stimulated T cells [2])?
A: T-helper epitope

Q: For “EEDEIDGPAGQAEPDRAHYN (Human papillomavirus type 16) [Peptide 47]”, which “restimulation of CVLP-stimulated T cells (CD8-positive T cells reactive by γ-interferon expression)” value (CVLP-stimulated T cells [1]) is on record?
A: effected restimulation of CVLP-stimulated T cells

Q: Which results are given for “ETTDLYCY (Human papillomavirus type 16) [peptide contained in peptide 45]”?
A: binding to HLA A1 molecules (HLA A1 molecules): described as HLA A1-binding peptide; binding to HLA A1 molecules (HLA A1 molecules; listed as E7 peptide 45): can bind to HLA A1 molecules

Q: With “GLQYRVFRI (Human papillomavirus type 16) [Peptide 2025]” as the sequence, how does the “restimulation of CVLP-stimulated T cells (γ interferon, CD3)” value (CVLP-stimulated T cells [3]) read?
A: not control peptide-incubated PBMCs, effected restimulation

Q: What does the source list for “HLFNRAGTV (Human papillomavirus type 16) [Peptide 5107]”?
A: stimulating CVLP-specific T cells (TNFα secretion, absorption at 595 nm) (CVLP-specific T cells): capable of stimulating CVLP-specific T cells; MHC molecules on the cell surface of T2 cells (fluorescence), indicating binding to MHC molecules [4]: significantly more MHC molecules on the cell surface

Q: For “ICWGNQLFV (Human papillomavirus type 16) [Peptide 2022]”, which “restimulation of CVLP-stimulated T cells (γ interferon, CD3)” value (CVLP-stimulated T cells [3]) is on record?
A: effected restimulation of CVLP-stimulated T cells

Q: What about the “MHC molecules on the cell surface of T2 cells (fluorescence), indicating binding to MHC molecules” value (“MHC molecules on the cell surface” below) [4] of the same sequence?
A: significantly more MHC molecules on the cell surface

Q: What does the source list for “ILEDWNFGL (Human papillomavirus type 16) [Peptide 5112]”?
A: stimulating CVLP-specific T cells (TNFα secretion, absorption at 595 nm) (CVLP-specific T cells): capable of stimulating CVLP-specific T cells; MHC molecules on the cell surface of T2 cells (fluorescence), indicating binding to MHC molecules [4]: significantly more MHC molecules on the cell surface

Q: With “ILVPKVSGL (Human papillomavirus type 16) [Peptide 5104]” as the sequence, how does the “stimulating CVLP-specific T cells (TNFα secretion, absorption at 595 nm)” value (CVLP-specific T cells) read?
A: capable of stimulating CVLP-specific T cells

Q: Which “binding to HLA A1 molecules” value (HLA A1 molecules) does the source give for “MHGDTPTLH (Human papillomavirus type 16) [9 mer contained in peptide 43]” here?
A: described as HLA A1-binding peptides

Q: What about the “binding to HLA A1 molecules” value (HLA A1 molecules; listed as E7 peptide 43) of the same sequence?
A: can bind to HLA A1 molecules

Q: For “MLDLQPETTDLYCYEQLNDS (Human papillomavirus type 16) [Peptide 45]”, which “peptide responsible for restimulation, deduced from pool matrix” value (CVLP-stimulated T cells [5]) is on record?
A: in all probability responsible for restimulation of CVLP-stimulated T cells

Q: For “NLASSNYFPT (Human papillomavirus type 16) [Peptide 2017]”, which “MHC molecules on the cell surface” value [4] is on record?
A: significantly more MHC molecules on the cell surface

Q: With “PLGRKFLLQAGMHGDTPTLH (Human papillomavirus type 16) [Peptide 43]” as the sequence, how does the “restimulation of CVLP-stimulated T cells (CD8-positive T cells reactive by γ-interferon expression)” value (CVLP-stimulated T cells [1]) read?
A: effected restimulation of CVLP-stimulated T cells

Q: What about the “Epitop-Information (HLA restriction)” value (CVLP-stimulated T cells [1]; Table 2) of the same sequence?
A: HLA A1 restr.

Q: What about the “Epitop-Information (epitope type)” value (CVLP-stimulated T cells [1]; Table 2) of the same sequence?
A: cytotoxic epitope

Q: For “QAEPDRAHYN (Human papillomavirus type 16) [10 mer contained in overlapping peptides 47 and 48]”, which “binding to HLA A1 molecules” value (HLA A1 molecules) is on record?
A: described as HLA A1-binding peptides

Q: And the “binding to HLA A1 molecules” value (HLA A1 molecules; listed as E7 peptide 47/48)?
A: can bind to HLA A1 molecules

Q: What does the source list for “RLVWACVGV (Human papillomavirus type 16) [Peptide 5106]”?
A: stimulating CVLP-specific T cells (TNFα secretion, absorption at 595 nm) (CVLP-specific T cells): capable of stimulating CVLP-specific T cells; MHC molecules on the cell surface of T2 cells (fluorescence), indicating binding to MHC molecules [4]: significantly more MHC molecules on the cell surface

Q: Which “MHC molecules on the cell surface” value [4] does the source give for SLWLPSEATVYL [Peptide 2016] here?
A: significantly more MHC molecules on the cell surface

Q: Which results are given for SMVTSDAQIFNKPYWLQRAQ [Peptide 28]?
A: restimulation of CVLP-stimulated T cells (CD4-positive T cells reactive by γ-interferon expression) (CVLP-stimulated T cells [2]): effected restimulation of CVLP-stimulated T cells; Epitop-Information (epitope type) (CVLP-stimulated T cells [2]): T-helper epitope

Q: What does the source list for “TLQANKSEV (Human papillomavirus type 16) [Peptide 5109]”?
A: stimulating CVLP-specific T cells (TNFα secretion, absorption at 595 nm) (CVLP-specific T cells): capable of stimulating CVLP-specific T cells; MHC molecules on the cell surface of T2 cells (fluorescence), indicating binding to MHC molecules [4]: significantly more MHC molecules on the cell surface

Q: With “TLTADVMTYI (Human papillomavirus type 16) [Peptide 2018]” as the sequence, how does the “MHC molecules on the cell surface” value [4] read?
A: significantly more MHC molecules on the cell surface

Q: With “YDLQFIFQL (Human papillomavirus type 16) [Peptide 2020]” as the sequence, how does the “MHC molecules on the cell surface” value [4] read?
A: significantly more MHC molecules on the cell surface

Q: With “YLPPVPVSKV (Human papillomavirus type 16) [Peptide 2019]” as the sequence, how does the “MHC molecules on the cell surface” value [4] read?
A: significantly more MHC molecules on the cell surface

Q: For “YLRREQMFV (Human papillomavirus type 16) [Peptide 5108]”, which “stimulating CVLP-specific T cells (TNFα secretion, absorption at 595 nm)” value (CVLP-specific T cells) is on record?
A: capable of stimulating CVLP-specific T cells
